The values that follow come from patent US4536518A, “Antidepressant derivatives of cis-4-phenyl-1,2,3,4-tetrahydro-1-naphthalenamine” (priority 1979, dated 1985).

Counter-ions that a name gives are not always drawn.

One test deals with uptake of serotonin. To be noted: background; cited from earlier work.
Test [1] relates to Synaptosomal Uptake of Serotonin (5HT), rat corpus striatum. The test can be described thus: Blockade of synaptosomal uptake of serotonin (5HT) in vitro. It counts as biochemical, rat (Sprague-Dawley CD). To be noted: 5HT uptake, Examples 26-49. The method, then:
(§1) Sprague-Dawley CD male rats weighing 180-220 g. (Charles River Laboratories, Inc.; Wilmington, Mass.) were used in this procedure. A crude synaptosomal fraction of rat corpus striatum (for 5HT and DA uptake) or hypothalmus (for NE uptake) tissue was prepared by homogenizing tissue (25 ml./g. wet) in ice-cold 0.32M sucrose containing 1 mg./ml. glucose, 0.0001M EDTA and tris(hydroxymethyl)aminomethane to pH 7.4. The homogenate was centrifuged at 1000 × g for 10 min. at 0°-4° C., the pellet discarded and the supernatant centrifuged at 17,000 × g for 20 min. at 0°-4° C. The resulting pellet was resuspended in the ice-cold 0.32M sucrose pH 7.4 solution at 10 ml./g. original tissue (wet) for corpus striatum and 5 ml./g. original tissue (wet) for hypothalmus. […] After incubation, the mixtures were filtered through 0.45 micron Millipore filters and the filters washed with the incubation buffer. […] Uptake was calculated as picomoles 5HT, DA or NE per mg. protein (protein was determined by measurement with Folin phenol reagent).

The subject of test [2] is Synaptosomal Uptake of Dopamine (DA), rat corpus striatum. The test can be described thus: Blockade of synaptosomal uptake of dopamine (DA) in vitro. The class given is biochemical, rat (Sprague-Dawley CD). The note with it: Examples 26-49. The method, then:
as §1

Test [3] deals with Synaptosomal Uptake of Norepinephrine (NE), rat hypothalmus. Briefly: Blockade of synaptosomal uptake of norepinephrine (NE) in vitro. It counts as biochemical, rat (Sprague-Dawley CD). The note with it: Examples 26-49. On the procedure: as §1
Test [4] concerns 5-hydroxytryptophan-induced tremors in mice. The test can be described thus: Potentiation of 5-hydroxytryptophan-induced behavioral symptoms (tremors) in vivo. Also noted: species or system mouse (Swiss-Webster CD). To be noted: Mus musculus, po, 1 h, read-out: ED50 (tremors).
Protocol: The mice were rated for the presence of this symptom by a "blinded observer" at 10-20 min. after 5HTP treatment.
In test [5] the test system is Behavioral Despair in mice. The test can be described thus: Reduction of behavioral despair in vivo (modified Porsolt method). On the set-up: species or system mouse (Swiss-Webster CD). The note with it: Mus musculus, sc; mice, subcutaneous; read-out: MPE50, footnoted no observed effect on immobility. The method, then: A modification of the procedure described by Porsolt et al., Arch. Int. […] (Charles River Laboratories, Inc.; Wilmington, Mass.) were housed under standard laboratory conditions for at least one week prior to experimentation. Groups of 10 mice were then injected subcutaneously with either a given dosage of the named test compound or vehicle (5% Emulphor: 5% ethanol: 90% normal saline). One hour later the mice were placed individually in 1 liter beakers containing 7 cm. of 25° C. water. Beginning at 2 min. after immersion, each mouse was observed every 30 sec. for the presence of immobility, characterized as floating motionless in the water. A total of ten observations were made, each being scored as "0=animal moving, swimming, attempting to escape" or "1=animal immobile". The number of positive observations for each mouse was then totaled and a mean immobility score calculated for the group of ten.

The test system of test [6] is synaptosomal norepinephrine uptake. The note with it: prior art; cited from earlier work.

For the compound `CN(C)C/C=C(/c1ccc(Br)cc1)c1cccnc1` [zimelidine], the “serotonin uptake blockade compared to norepinephrine blockade (in words)” value in the test with uptake of serotonin is on record as “selectively block the uptake of serotonin”.
In the case of `COCCCC/C(=N\OCCN)c1ccc(C(F)(F)F)cc1` [fluvoxamine], in the test with uptake of serotonin, the “serotonin uptake blockade compared to norepinephrine blockade (in words)” value is given as “selectively block the uptake of serotonin”.
What is called IC50 is the concentration at which inhibition is half-maximal. Read a high IC50 as weaker potency. In the case of `CN(C)[C@H]1CC[C@@H](c2cccc(C(F)(F)F)c2)c2ccccc21` (relative stereo) [Example 22, Cis-(1S)(1R)-N,N-dimethyl-4-(3-trifluoromethylphenyl)-1,2,3,4-tetrahydro-1-naphthalenamine Maleate], the IC50 in test [1] is 190 nM; in test [2], 7000 nM; in test [3] it was 890 nM. The ED50 in test [4] was 3.2 to 10 mg/kg; in test [5] it was > 56 mg/kg.
As to `CN[C@@H]1CC[C@@H](c2ccccc2)c2ccccc21` [trans-(1R)-N-methyl-4-phenyl-1,2,3,4-tetrahydro-1-naphthalenamine], the “synaptosomal norepinephrine uptake blocking activity (in words)” value in test [6] is reported as “excellent”.
